The record followed here is ChEMBL document CHEMBL1155567, “Three new toxic norditerpenoid alkaloids from the low larkspur Delphinium nuttallianum” (J Nat Prod, 2000).

The series can be described thus: Toxicity in iv dosed 24 hrs fasted Swiss-Webster mouse. The series is classed as organism-based. The following applies: in vivo.

As a reminder, the LD50 is the dose expected to kill half of the subjects tested.

In turn, `CCN1C[C@]2(COC(=O)c3ccccc3N3C(=O)C[C@H](C)C3=O)CC[C@H](OC)[C@]34C5C[C@@H]6[C@@H](OC(C)=O)C[C@@](O)(C5[C@H]6O)[C@@](O)([C@H]13)[C@@H](OC)C24` (stereo partly drawn) came in with a median lethal dose (LD50) of 5.7 mg/kg. For `CCN1C[C@]2(COC(=O)c3ccccc3N3C(=O)C[C@H](C)C3=O)CC[C@H](OC)[C@]34C5C[C@@H]6[C@@H](OC(C)=O)C[C@@](O)(C5[C@H]6OC(C)=O)[C@@](O)([C@H]13)[C@@H](OC)C24` (stereo partly drawn) the value was 3.3 mg/kg; for `CCN1C[C@]2(COC(=O)c3ccccc3N3C(=O)C[C@H](C)C3=O)CC[C@H](OC)[C@]34C5C[C@@H]6[C@@H](OC(C)=O)C[C@@](O)(C5[C@H]6OC)[C@@](O)([C@H]13)[C@@H](OC)C24` (stereo partly drawn) [GEYERLINE], 6.2 mg/kg.
